Experimental data reported in patent publication US20220299532A1, “CORRECTING PROTEIN MISFOLDING IN DIABETES” (Sanford Burnham Prebys Medical Discovery Institute, priority 2019, published 2022).
Residues, ends and D or L forms follow the SMILES beside them. *: point of attachment. Cbz = O=C(OCc1ccccc1)*

Legend:
mouse pancreatic islets = assay: Proinsulin disulfide-linked / HMW complexes in murine islets, SDS-PAGE immunoblot (CCI-17); type: cell-based; details: islets of WT male mice on regular diet, increasing concentrations of DTT in culture
Method: Mouse pancreatic islet isolation: Mice were euthanized by CO2 narcosis as per an approved institutional animal protocol. The pancreas was rapidly excised, minced in ice-cold PBS, and digested in 4 mL of Collagenase P (Roche) 1.5 mg/mL in Hank's Balanced Salt Solution containing calcium and magnesium, in a shaking water bath for 30 min at 37° C. The digestion was terminated in 40 mL ice-cold PBS (—Ca/—Mg) and the digested tissue washed twice in this buffer. The sedimented tissue digest was then overlaid with 3 mL Histopaque-1077 and further overlayed with 6 mL ice cold PBS (—Ca/—Mg) before centrifugation (3000 rpm for 20 min at 10° C. with no brake) and transfer of the midlayer of the Histopaque gradient to a 15 ml tube for two further washes in ice-cold PBS. Finally, the sedimented tissue was transferred to a petri dish in ice-cold RPMI-1640 buffer and islets hand-picked to purity. In experiments involving drug or compound treatment, the islets were finally recovered overnight in RPMI-1640 supplemented with 10% fetal bovine serum (FBS), 10 mM HEPES pH 7.35, 1 mM sodium pyruvate and 0.05 mM beta-mercaptoethanol, in a humidified 5% CO2 incubator at 37° C. For some experiments, islets were snap frozen in liquid nitrogen and stored frozen prior to analysis.
(§1) Lysis of cells or islets for SDS-PAGE and electrotransfer: After removal of media, cells were washed once with ice-cold PBS and lysed in RIPA buffer (10 mM Tris pH 7.4, 150 mM NaCl, 0.1% SDS, 1% NP40, 2 mM EDTA) plus protease inhibitor/phosphatase inhibitor cocktail (Sigma-Aldrich) or directly in Laemmli gel sample buffer. Lysates in RIPA buffer were immediately spun at 10,000 rpm for 10 min at 4° C. and the supernatants analyzed further or stored at −80° C. Islets that had been quick frozen were placed on ice and RIPA buffer containing protease inhibitor cocktail and phosphatase inhibitor was added. Lysis was carried out by gently pipetting or by syringe through a 30G needle. Total protein concentration in the lysate was determined by BCA or Bramhall assay, and 5-10 μg of samples prepared in SDS sample were resolved by SDS-PAGE in 4-12% Bis-Tris NuPAGE gels (Invitrogen) at 200 V for 30 min. Nonreducing gels were incubated in a solution containing 20 mM dithiothreitol (DTT) for 10 min at room temperature prior to electrotransfer.
(§2) Immunoblotting: Transfer membranes were rinsed once in TBST (15 mM Tris, 150 mM NaCl, 0.1% Tween-20), blocked using TST plus 5% BSA for 1 h at room temperature, and then washed four times (5 min each) in TBST. Primary antibody and secondary antibodies were diluted in TBST and each of […] incubations was 1 h at room temperature followed by 4 washes in TBST. On occasion, primary antibodies were incubated overnight at 4° C. Secondary antibodies were all HRP-conjugates. Development of immunoblots used enhanced chemiluminescence (Immobilon, Millipore, or SuperSignal West Pico PLUS, Thermo Fisher Scientific) with images captured using a Fotodyne gel imager.
Islet Isolation: Islets were isolated by collagenase P (Roche) perfusion as described following by histopaque-1077 (Sigma-Aldrich, Inc. St. Louis) gradient purification. Islets were handpicked and studied directly or after overnight culture in RPMI 1640 medium (Corning 10-040-CV) supplemented with 10% FBS, 1% penicillin/streptomycin, 100 μg/m1 primocin, 10mM Hepes, and 1mM sodium pyruvate.
Islet Western Blotting: Isolated islets were lysed in RIPA buffer (10 mM Tris pH 7.4, 150 mM NaCl, 0.1% SDS, 1% NP-40, 2mM EDTA) with protease and phosphatase inhibitors (Fisher Scientific) on ice for 10 min and lysates were collected after centrifugation at 4° C. for 10 min at 12000 g. Samples were prepared in Laemmli sample buffer without (non-reducing) or with (reducing) 5% β-mercaptoethanol. After boiling for 5 min, samples were analyzed by SDS-PAGE (4-12% Bis-Tris gel, (Bio-Rad Laboratories, Inc.)) and transferred to nitrocellulose membranes (Bio-Rad Laboratories, Inc.). […]

[1] = tested on: murine embryonic fibroblasts (MEFs); assay: Human proinsulin delivered by adenovirus to murine embryonic fibroblasts, non-reducing SDS-PAGE; type: cell-based, mouse; details: MEFs infected with Ad-hProins, increasing concentrations of DTT
Method: Generation and culture of primary mouse embryonic fibroblast (MEF): WT C57BL/6 d14 embryos were isolated under sterile conditions and placed in 100 mm cell culture dish containing PBS. Placental and other maternal tissues were removed and the embryos were washed three times with PBS. Heads and visceral organs were removed. The heads were used for genotyping. Embryos were finely minced with a sterile razor blade and treated with 1 ml of 0.25% trypsin/EDTA (Corning) for 40 min at 37° C. DMEM medium (Corning) supplemented with 10% FBS, 1% penicillin/streptomycin, 100 μg/ml primocin and 1 mM sodium pyruvate was added to quench trypsin activity. Tissue homogenate was subsequently disaggregated by repeated pipetting, and further centrifuged to collect the fibroblast cell pallet. Cells were plated in 100 mm culture dish in DMEM medium at 37° C. in a cell culture incubator under 5% CO2. To prevent mycoplasma, bacterial, and fungal contamination, primary MEFs were cultured in medium containing 100 μg/ml primocin (InvivoGen) and used for experiments prior to passage #5.
To study the impact of PDIA1 in the absence of C peptide processing in a more manipulatable system, the inventors analyzed human proinsulin expression delivered by adenovirus to murine embryonic fibroblasts (MEFs) that were co-infected with WT PDIA1 or PDIA1 with 4 Cys to Ser mutations in the two vicinal catalytic PDI sites. […]

INS-832/13 β-cell line = assay: Detection of myc-tagged two-cysteine proinsulin mutants in INS-832/13 cells, nonreducing SDS-PAGE immunoblot; type: cell-based, rat; details: MG132 10 μg/mL for 7 h
Method: (§3) Cell and islet culture: Rat pancreatic beta cell lines INS1E and INS-832/13 were cultured in RPMI-1640 medium supplemented with 10% FBS, 10 mM HEPES pH 7.35, 1 mM sodium pyruvate, penicillin/streptomycin and 0.05 mM beta-mercaptoethanol. HEK293T human cells lines were cultured in DMEM supplemented with 10% FBS and penicillin/streptomycin.
(§4) Transfection of cells: 293T cells, INS1E cells, and INS-832/13 cells at 70-80% confluency were transiently transfected using Lipofectamine 2000 (ThermoFisher) as per the manufacturer's instructions. A medium change was performed 5 h post-transfection and the cells were lysed at 36 or 48 h.
as §1, with “Islets that had been quick frozen were placed on ice and RIPA buffer containing protease inhibitor cocktail and phosphatase inhibitor was added. Lysis was carried out by gently pipetting or by syringe through a 30G needle.” left out, “Nonreducing gels were incubated in a solution containing 20 mM dithiothreitol (DTT) for 10 min at room temperature prior to electrotransfer.” left out

human islets = assay: Proinsulin disulfide-linked complexes in human islets, SDS-PAGE immunoblot (mAb 20G11); type: cell-based; details: overnight PERK inhibitor
Method: Human pancreatic islets: Human islets were obtained either from Prodo Labs, or from the NIDDK-funded Integrated Islet Distribution Program (IIDP; NIH UC4-DK098085) and maintained in a humidified 5% CO2 incubator at 37° C. Human islets were cultured ex vivo for up to 96 h in Prodo PIM(R) islet19 specific tissue culture medium supplemented with 10% FBS and Prodo PIM(G) glutamine/glutathione supplement, plus penicillin/streptomycin.
as §1, with “Nonreducing gels were incubated in a solution containing 20 mM dithiothreitol (DTT) for 10 min at room temperature prior to electrotransfer.” left out

293T cells = assay: Disulfide-linked complexes of recombinant human proinsulin in 293T cells, nonreducing SDS-PAGE immunoblot (mAb 20G11); type: cell-based; details: overnight PERK inhibitor
Method: as §3, §4
as §1, with “Islets that had been quick frozen were placed on ice and RIPA buffer containing protease inhibitor cocktail and phosphatase inhibitor was added. Lysis was carried out by gently pipetting or by syringe through a 30G needle.” left out, “Nonreducing gels were incubated in a solution containing 20 mM dithiothreitol (DTT) for 10 min at room temperature prior to electrotransfer.” left out

INS1E cells [2] = assay: Proinsulin disulfide-linked complexes in INS1E cells, nonreducing/reducing SDS-PAGE and immunoblotting (mAb CCI-17); type: cell-based, rat
Method: HEK293T human cells lines were cultured in DMEM supplemented with 10% FBS and penicillin/streptomycin.
as §1, with “Islets that had been quick frozen were placed on ice and RIPA buffer containing protease inhibitor cocktail and phosphatase inhibitor was added.” left out, “Total protein concentration in the lysate was determined by BCA or Bramhall assay, and 5-10 μg of samples prepared in SDS sample were resolved by SDS-PAGE in 4-12% Bis-Tris NuPAGE gels (Invitrogen) at 200 V for 30 min.” left out
The lane was then laid horizontally on top of a 10% SDS-polyacrylamide resolving gel and sealed in place in stacking gel. A single-tooth comb was introduced at one end of the stacking gel to introduce a one-dimensional reduced sample of proinsulin containing cell lysate (which runs as proinsulin monomer). The gel was run at 200 V for 45 mins in Tris-Glycine buffer pH 8.8 with electrotransfer as described above.
as §2

INS1E cells [3] = assay: Intracellular proinsulin distribution in INS1E cells, indirect immunofluorescence; type: cell-based, rat; details: overnight PERK inhibitor, anti-proinsulin GS-9A8 and anti-calnexin
Method: Immunohistochemistry/immunocytochemistry: Pancreatic paraffin sections were de-paraffinized with Citrisolv (Fisher Scientific) for 5 min at room temperature, re-hydrated in a series of 8 min ethanol incubations: 100%, 95%, 70%, and distilled water. Antigen retrieval was carried out using Retrieve-ALL 1 Universal pH 8 (BioLegend) and slides were heated in a microwave, cooled for 30 min at room temperature, and incubated once with PBS for 5 min. Blocking was performed in 150 μL blocking buffer (3% BSA prepared in TBS and 0.2% Triton X-100) per section for 2 h at room temperature. Blocking buffer was removed and 150 μL per section of primary antibody appropriately diluted in TBS plus 3% BSA and 0.2% Tween-20 was incubated overnight at 4° C. The primary antibody was removed and the slide washed twice with TBS/0.1% Tween-20. Then, 150 μL secondary antibody (1:500 dilution, prepared in antibody buffer) per section was incubated for 1 h at room temperature. Slides were washed thrice with TBS/0.1% Tween-20, mounted with a drop of prolong gold anti-fade reagent with DAPI (ThermoFisher) and a cover slip affixed. For immunocytochemistry, INS1E cells were grown in an 8-well Millicell® EZ SLIDE (Millipore-SIGMA). Cells were allowed to reach 60-80% confluency before addition of PERK inhibitor (PERKi) or vehicle. […]

O[C@H](CS)[C@H](O)CS (racemic) [dithiothreitol]
proinsulin monomer and dimer (mouse pancreatic islets): increasing amounts of the proinsulin monomer and residual disulfide-linked dimer | reduced proinsulin [1]: increased the amount of reduced proinsulin

CC(C)C[C@@H](C=O)NC(=O)[C@H](CC(C)C)NC(=O)[C@H](CC(C)C)NC(=O)OCc1ccccc1 [MG132] (Cbz-Leu-Leu-Leu-aldehyde)
detection of myc-tagged proinsulin mutants (keep-B7/A7, keep-A6/A11, keep-B19/A20) (INS-832/13 β-cell line): myc-tagged proinsulin monomers were detected in all cases

Cc1cccc(CC(=O)N2CCc3c2ccc(-c2cn(C)c4ncnc(N)c24)c3F)n1 [PERK inhibitor, GSK2656157]
higher order disulfide-linked proinsulin complexes (human islets; nonreducing SDS-PAGE): further increase in higher order disulfide-linked complexes | total islet proinsulin (human islets; reducing SDS-PAGE): increase in total islet proinsulin | disulfide-linked proinsulin dimers and higher-order complexes of recombinant human proinsulin (293T cells): accumulated to a dramatically higher level | disulfide-linked proinsulin complexes as share of all recovered proinsulin (INS1E cells [2]; INS1E cells treated with PERK inhibitor, 2D nonreducing/reducing SDS-PAGE): 87% | intracellular proinsulin in disulfide-linked complexes with increasing time of exposure (INS1E cells [2]; INS1E cells, PERK inhibitor for last 0, 5, 10 or 20 h): the majority of intracellular proinsulin accumulated in disulfide-linked complexes | intracellular accumulation of proinsulin (INS1E cells [2]; INS1E cells, PERK inhibitor overnight (GSK2656157, 2 μM) vs vehicle DMSO): dramatically increased | insulin content (INS1E cells [2]; INS1E cells, PERK inhibitor up to 20 h): decreased insulin content | proinsulin secretion (INS1E cells [2]; INS1E cells, PERK inhibitor up to 20 h, media): decreased proinsulin secretion | secretion of proinsulin to the medium (INS1E cells [2]; INS1E cells, overnight PERK inhibitor, nonreducing SDS-PAGE of media): not increased | intracellular proinsulin distribution (INS1E cells [3]): shifted its distribution to the classic impacted-ER phenotype
